Measurements reported in PubChem BioAssay AID2060906 (Molecular Pharmacology Branch, DTP, NCI, 2025).

Tested on: 485176-168-R4-J1-PDC complex spheroid growth
Assay: Anticancer human tumor 485176-168-R4-J1-PDC patient-derived pancreatic adenocarcinoma cell line growth inhibition [RAS]
Details: for IC50: curve of first compound; for viability, T/C: stronger effect = lower value
Source text: RAS pathway inhibitors in Combinations in Complex Spheroids
A high-throughput screen of multi-cell type tumor spheroids was designed to identify active combinations of RAS pathway inhibitors and targeted small molecules. Complex spheroids include a stromal component modeled by human endothelial cells (HUVEC) and fibroblasts modeled by human mesenchymal stem cells (MSCs). The concentration ranges selected for each drug and investigational agent were based upon clinically achievable concentrations if the clinical Cmax of the agent was known.
Compounds. The drugs and investigational agents: abemaciclib (NSC768073), cobimetinib (NSC768068), divarasib (GDC6063, NSC841802), docetaxel (NSC628503), GDC-1971 (RLY-1971, NSC841576), gemcitabine (NSC613327), inavolisib (NSC800729), ipatasertib (NSC767898), KB-0742 (NSC834161), MRTX-1133 (NSC836407), osimertinib (NSC779217), RMC-4630 (NSC839698), RMC-6236 (NSC851965), RMC-6291 (NSC852671), Ro-3306 (NSC812927), sapanisertib (NSC764658), SN-38 (NSC673596), staurosporine (NSC755774), SY5609 (NSC837396), and tovorafenib (DAY101, NSC766906), were obtained from the National Cancer Institute (NCI) Developmental Therapeutics Program Chemical Repository. The FDA-approved anticancer drug set is available from the NCI Developmental Therapeutics Program. […] The stock solutions were prepared in dimethyl sulfoxide (DMSO, Sigma-Aldrich, St. Louis, MO, cat. D2650) at 800-fold the tested concentration and stored at -70 degrees C prior to their use. All drugs and investigational agents were tested over a range starting from a high concentration at or near the clinical Cmax and decreasing in half-log increments. If the clinical Cmax for an agent had not been determined, the highest concentration tested was 10 microM.
Cell Culture. All cells were maintained in an incubator at 37 degrees C and 5% CO2 with 95% humidity. The PDC lines were cultured according to standard operating procedures established by the NCI PDMR. All PDCs were thawed and cultured in Matrigel-coated flasks prepared with a working solution of 1X Ham's F-12 nutrient mix, without supplementation (Invitrogen, Waltham, MA, cat. 11765054), 100 U/mL penicillin-streptomycin (Invitrogen, cat. 15140122), and 2.5% Matrigel (Corning Inc., Corning, NY, cat. 354248) for the first three passages. The 362531-283-R-J2-PDC and 782815-120-R-J1-PDC lines were cultured in 6C/Colon 1B media, which includes advanced DMEM/F-12 (Thermo Fisher Scientific, cat. 12634028), 10 mM HEPES (Thermo Fisher Scientific, cat. 15630080), 1X GlutaMAX supplement (Thermo Fisher Scientific, cat. 35050061), 0.1 mg/mL primocin (InvivoGen, San Diego, CA, cat. ant-pm-2), 10% defined fetal bovine serum, heat inactivated (HyClone Laboratories Inc., Logan, UT, cat. SH30070.03HI), 50% L-WRN conditioned media (ATCC, cat. CRL-3276), 1.25 mM N-Acetyl-L-cysteine (Sigma-Aldrich, cat. A9165), 10 mM nicotinamide (Sigma-Aldrich, cat. N0636), 1X B-27 supplement (Thermo Fisher Scientific, cat. 17504044), 1X N-2 supplement (Thermo Fisher Scientific, cat. 17502048), 50 ng/mL human EGF (Thermo Fisher Scientific, cat. PHG0311), and 10 microM Y-27632 dihydrochloride (Tocris Bioscience, cat. 1254). The K12877-001-R-J1-PDC line was cultured in 6I media, which includes all 6C/Colon 1B media plus 10 ng/mL human FGF-10 (PeproTech, cat. 100-26), 1 ng/mL human FGF-2 (PeproTech, cat. 100-18B), 1 µM prostaglandin E2 (Tocris Bioscience, cat. 2296), […] hydrocortisone (Sigma-Aldrich, cat. H4001), and […] bovine insulin (Sigma-Aldrich, cat. I6634). The K86415-001-R-J1-PDC line was cultured in 6D media, which includes all 6C/Colon 1B media components minus the L-WRN conditioned media. The 485176-168-R4-J1-PDC was cultured in PANC media, which includes all 6C/Colon 1B media plus 100 ng/mL human FGF-10 (PeproTech, cat. 100-26), 500 nM SB-431542 (Selleckchem, cat. S1067), and 10 nM gastrin (Tocris Bioscience, cat. 3006). […]
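Note: spheroids exposed to compounds for seven days before readout.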
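Throughout, for viability, T/C: luminescence viability expressed relative to DMSO vehicle wells set as 100%.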

With `CC(=O)OC12COC1CC(O)C1(C)C(=O)C(O)C3=C(C)C(OC(=O)C(O)C(NC(=O)OC(C)(C)C)c4ccccc4)CC(O)(C(OC(=O)c4ccccc4)C21)C3(C)C` (centres undefined) + CCn1c(-c2cc(N3CCN(C)CC3)cnc2C(C)OC)c2c3cc(ccc31)-c1csc(n1)CC(NC(=O)C1CC1C)C(=O)N1CCCC(N1)C(=O)OCC(C)(C)C2 the IC50 (second compound 0.000949 µM) was less than 31.6 nM, the IC50 (second compound 0.003 µM) was less than 31.6 nM and the IC50 (second compound 0.00949 µM) was less than 31.6 nM. For the same compound, the IC50 (second compound 0.03 µM) was less than 31.6 nM, the IC50 (second compound 0.0949 µM) was less than 31.6 nM and the IC50 (second compound 0.3 µM) was less than 31.6 nM. The viability, T/C (second compound 0.000949 µM, first compound 0.0316 µM) was 16.7%, the viability, T/C (second compound 0.000949 µM, first compound 0.1 µM) was 15.2% and the viability, T/C (second compound 0.000949 µM, first compound 0.316 µM) was 13.1%. It also gave a viability, T/C (second compound 0.000949 µM, first compound 1 µM) of 13.9%, a viability, T/C (second compound 0.000949 µM, first compound 3.16 µM) of 15.6% and a viability, T/C (second compound 0.000949 µM, first compound 10 µM) of 19.6%. For the same compound, the viability, T/C (second compound 0.003 µM, first compound 0.0316 µM) was 14.1%, the viability, T/C (second compound 0.003 µM, first compound 0.1 µM) was 13.2% and the viability, T/C (second compound 0.003 µM, first compound 0.316 µM) was 10.9%. The viability, T/C (second compound 0.003 µM, first compound 1 µM) was 15.5%, the viability, T/C (second compound 0.003 µM, first compound 3.16 µM) was 13.1% and the viability, T/C (second compound 0.003 µM, first compound 10 µM) was 17.9%. For the same compound, the viability, T/C (second compound 0.00949 µM, first compound 0.0316 µM) was 17.2%, the viability, T/C (second compound 0.00949 µM, first compound 0.1 µM) was 12.8% and the viability, T/C (second compound 0.00949 µM, first compound 0.316 µM) was 12.7%. For the same compound, the viability, T/C (second compound 0.00949 µM, first compound 1 µM) was 12.8%, the viability, T/C (second compound 0.00949 µM, first compound 3.16 µM) was 13.2% and the viability, T/C (second compound 0.00949 µM, first compound 10 µM) was 20.1%. The viability, T/C (second compound 0.03 µM, first compound 0.0316 µM) was 12.3%, the viability, T/C (second compound 0.03 µM, first compound 0.1 µM) was 13.4% and the viability, T/C (second compound 0.03 µM, first compound 0.316 µM) was 13.8%. The viability, T/C (second compound 0.03 µM, first compound 1 µM) was 10.8%, the viability, T/C (second compound 0.03 µM, first compound 3.16 µM) was 16.5% and the viability, T/C (second compound 0.03 µM, first compound 10 µM) was 21%. It also gave a viability, T/C (second compound 0.0949 µM, first compound 0.0316 µM) of 14.2%, a viability, T/C (second compound 0.0949 µM, first compound 0.1 µM) of 11.9% and a viability, T/C (second compound 0.0949 µM, first compound 0.316 µM) of 11.8%. It also gave a viability, T/C (second compound 0.0949 µM, first compound 1 µM) of 9.97%, a viability, T/C (second compound 0.0949 µM, first compound 3.16 µM) of 14.9% and a viability, T/C (second compound 0.0949 µM, first compound 10 µM) of 15.9%. It also gave a viability, T/C (second compound 0.3 µM, first compound 0.0316 µM) of 15.5%, a viability, T/C (second compound 0.3 µM, first compound 0.1 µM) of 13.1% and a viability, T/C (second compound 0.3 µM, first compound 0.316 µM) of 9.69%. It also gave a viability, T/C (second compound 0.3 µM, first compound 1 µM) of 12.8%, a viability, T/C (second compound 0.3 µM, first compound 3.16 µM) of 15.8% and a viability, T/C (second compound 0.3 µM, first compound 10 µM) of 14.7%.

In the case of `CC1(C)CCC(Nc2ncc(C(F)(F)F)c(-c3c[nH]c4c(P(C)(C)=O)c(C#N)ccc34)n2)CN1` (centres undefined) + C=CC(=O)N1CCN(c2nc(OCC3CCCN3C)nc3c(F)c(-c4nc(N)cc(C)c4C(F)(F)F)c(Cl)cc23)C(C)C1, the IC50 (second compound 0.00316 µM) is reported as greater than 300 nM, the IC50 (second compound 0.01 µM) is reported as 80.8 nM and the IC50 (second compound 0.0316 µM) is reported as greater than 300 nM. For the same compound, the IC50 (second compound 0.1 µM) was 133 nM, the IC50 (second compound 0.316 µM) was 43.1 nM and the IC50 (second compound 1 µM) was 94.4 nM. For the same compound, the viability, T/C (second compound 0.00316 µM, first compound 0.000949 µM) was 116%, the viability, T/C (second compound 0.00316 µM, first compound 0.003 µM) was 109% and the viability, T/C (second compound 0.00316 µM, first compound 0.00949 µM) was 85.6%. For the same compound, the viability, T/C (second compound 0.00316 µM, first compound 0.03 µM) was 60%, the viability, T/C (second compound 0.00316 µM, first compound 0.0949 µM) was 46.2% and the viability, T/C (second compound 0.00316 µM, first compound 0.3 µM) was 55.6%. The viability, T/C (second compound 0.01 µM, first compound 0.000949 µM) was 122%, the viability, T/C (second compound 0.01 µM, first compound 0.003 µM) was 98.9% and the viability, T/C (second compound 0.01 µM, first compound 0.00949 µM) was 75.7%. For the same compound, the viability, T/C (second compound 0.01 µM, first compound 0.03 µM) was 53.9%, the viability, T/C (second compound 0.01 µM, first compound 0.0949 µM) was 48.4% and the viability, T/C (second compound 0.01 µM, first compound 0.3 µM) was 48.1%. It also gave a viability, T/C (second compound 0.0316 µM, first compound 0.000949 µM) of 100%, a viability, T/C (second compound 0.0316 µM, first compound 0.003 µM) of 105% and a viability, T/C (second compound 0.0316 µM, first compound 0.00949 µM) of 81.5%. The viability, T/C (second compound 0.0316 µM, first compound 0.03 µM) was 59.5%, the viability, T/C (second compound 0.0316 µM, first compound 0.0949 µM) was 51% and the viability, T/C (second compound 0.0316 µM, first compound 0.3 µM) was 49.1%. It also gave a viability, T/C (second compound 0.1 µM, first compound 0.000949 µM) of 102%, a viability, T/C (second compound 0.1 µM, first compound 0.003 µM) of 84.8% and a viability, T/C (second compound 0.1 µM, first compound 0.00949 µM) of 80.4%. It also gave a viability, T/C (second compound 0.1 µM, first compound 0.03 µM) of 63.8%, a viability, T/C (second compound 0.1 µM, first compound 0.0949 µM) of 47.2% and a viability, T/C (second compound 0.1 µM, first compound 0.3 µM) of 47.8%. It also gave a viability, T/C (second compound 0.316 µM, first compound 0.000949 µM) of 92.7%, a viability, T/C (second compound 0.316 µM, first compound 0.003 µM) of 104% and a viability, T/C (second compound 0.316 µM, first compound 0.00949 µM) of 81%. The viability, T/C (second compound 0.316 µM, first compound 0.03 µM) was 52%, the viability, T/C (second compound 0.316 µM, first compound 0.0949 µM) was 52.1% and the viability, T/C (second compound 0.316 µM, first compound 0.3 µM) was 44.2%. The viability, T/C (second compound 1 µM, first compound 0.000949 µM) was 108%, the viability, T/C (second compound 1 µM, first compound 0.003 µM) was 106% and the viability, T/C (second compound 1 µM, first compound 0.00949 µM) was 82.8%. For the same compound, the viability, T/C (second compound 1 µM, first compound 0.03 µM) was 57%, the viability, T/C (second compound 1 µM, first compound 0.0949 µM) was 52.2% and the viability, T/C (second compound 1 µM, first compound 0.3 µM) was 46.9%.
